From article PMC2806534 (Planta, 2009) come the findings set out here.

SMILES strings stand for the structures.

This assay has as its target T1, AtSUT4 (Arabidopsis thaliana, UniProt Q9FE59).
T1 sequence (Q9FE59 1-510): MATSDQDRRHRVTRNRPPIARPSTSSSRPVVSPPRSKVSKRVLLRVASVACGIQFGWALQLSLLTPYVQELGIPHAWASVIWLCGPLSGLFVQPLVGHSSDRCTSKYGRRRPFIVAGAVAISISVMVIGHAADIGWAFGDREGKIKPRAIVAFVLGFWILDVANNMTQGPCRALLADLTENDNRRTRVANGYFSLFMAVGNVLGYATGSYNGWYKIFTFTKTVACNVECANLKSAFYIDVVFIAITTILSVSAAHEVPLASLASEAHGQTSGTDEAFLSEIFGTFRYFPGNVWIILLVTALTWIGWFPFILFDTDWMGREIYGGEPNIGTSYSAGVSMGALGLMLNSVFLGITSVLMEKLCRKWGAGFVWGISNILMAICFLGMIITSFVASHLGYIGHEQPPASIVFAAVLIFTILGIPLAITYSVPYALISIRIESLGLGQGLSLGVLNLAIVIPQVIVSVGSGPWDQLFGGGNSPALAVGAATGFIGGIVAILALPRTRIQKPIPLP
Description: inhibition of ^[…]-sucrose uptake in yeast expressing AtSUT4. The note with it: 3 mM ^14C-sucrose; competing non-labeled sugar at 9 mM. The format is cell-based.

On to `OC[C@H]1O[C@@H](O[C@H]2[C@H](O)[C@@H](O)C(O)O[C@@H]2CO)[C@H](O)[C@@H](O)[C@H]1O` (some centres unmarked) [lactose], for which the “% inhibition at 9 mM” value is “uptake of sucrose by AtSUT4 was inhibited by rutinose, maltose and lactose”.

Take `OC[C@H]1O[C@H](O[C@H]2[C@H](O)[C@@H](O)C(O)O[C@@H]2CO)[C@H](O)[C@@H](O)[C@@H]1O` (some centres unmarked) [maltose]: the “% inhibition at 9 mM” value is “uptake of sucrose by AtSUT4 was inhibited by rutinose, maltose and lactose”.
